Reference: US20070071692A1, “Aerosol powder formulation” (priority 2005, published 2007)

Assay: Particle size of unmilled and jet milled Compound X (optical microscopy, Microtrac, Aerosizer, SEM)
Format: physicochemical
Source text: In the studies described below the aerosol performance of micronized Compound X with three different grades of lactose made specifically for inhalation in an Spinhaler® is compared. The carriers studied were milled lactose for inhalation (Respitose™ ML003), sieved lactose for inhalation (Respitose SV003) and granulated lactose for inhalation (Respitose LS243). Each carrier was characterized for particle size, flow properties and morphology. Jet milled Compound X, with an average particle size of 2.8 microns was used in the studies. […] Blends were manufactured with 4% w/w drug loading at a scale of 1 g. Capsules were then filled with 25 mg of blend to achieve a 1 mg nominal dose. Each blend was characterized for blend uniformity, dose uniformity and aerodynamic particle size distribution. Granulated lactose produced the weakest drug aerosolization compared to milled and sieved lactose. […] The delivered shot weight was 92% of target with an in-vitro respirable fraction of 26% and an emitted dose of 34%. The formulation is considered appropriate for animal model studies use however optimization of the formulation and the blending characteristics will be pursued following results from the in-vivo animal studies. Three jet milled samples of Compound X observed using X-ray powder diffraction (XRPD) and thermogravimetry (TGA) that the jet milled samples had similar properties to the unmilled lots. The samples retained their crystalline form. By SEM, it was observed that the jet milled drug was smaller in particle size compared to the unmilled drug, while maintaining the needle-like morphology. Drug particle size ranged from ca. 2-25 μm in length and ca. 2 μm in width with agglomerates up to 50 μm in diameter. Only one of the jet milled lots was used for the described studies below.

Drug particle size, length (SEM, jet milled): 2-25 μm
Drug particle size, width (SEM, jet milled): ca. 2 μm
agglomerates, diameter (SEM, jet milled): up to 50 μm
average particle size (jet milled drug used in the studies): 2.8 microns
Structure (SMILES): O=C(NC1CC1)c1cn(-c2cccc(C#Cc3ccc[n+]([O-])c3)c2)c2ncccc2c1=O [Milled API, N-cyclopropyl-1-[3-(1-oxido-3-pyridinylethynyl)phenyl]-1,4-dihydro[1,8]naphthyridin-4-one-3-carboxamide]
